Laboratory results reported in publication PMC10202292, “The exquisite specificity of human protein arginine methyltransferase 7 (PRMT7) toward Arg-X-Arg sites” (PLOS ONE, 2023).
Read-outs that look alike come from different tables or passages of the source. No end group written: not given here.

Legend:
GST-HsPRMT7 [1] = target: T1, GST-HsPRMT7 (Homo sapiens, UniProt Q9NVM4); experiment: Michaelis-Menten kinetics of peptide substrate methylation (P81 phosphocellulose paper assay); type: biochemical; design: key to Vmax, Michaelis-Menten best-fit value, Fig7 / Vmax, Michaelis-Menten best-fit value, Fig8: Vmax expressed as cpm (averages of cycles 2–4); conditions: for Km / Vmax, Michaelis-Menten best-fit value, Fig7 / Vmax, Michaelis-Menten best-fit value, Fig8: 60 min, 25°C; for change of Vmax after adding 130 mM KCl: with vs without 130 mM KCl (Fig 8, Table 2), in words; for Vmax, times lower than RKR: experiments of Fig 7, relative to RKR peptide
T1 construct: full-length human PRMT7 (residues 1–692); 34693; host or cells: E. coli BL21 DE3
T1 sequence (Q9NVM4 1-692): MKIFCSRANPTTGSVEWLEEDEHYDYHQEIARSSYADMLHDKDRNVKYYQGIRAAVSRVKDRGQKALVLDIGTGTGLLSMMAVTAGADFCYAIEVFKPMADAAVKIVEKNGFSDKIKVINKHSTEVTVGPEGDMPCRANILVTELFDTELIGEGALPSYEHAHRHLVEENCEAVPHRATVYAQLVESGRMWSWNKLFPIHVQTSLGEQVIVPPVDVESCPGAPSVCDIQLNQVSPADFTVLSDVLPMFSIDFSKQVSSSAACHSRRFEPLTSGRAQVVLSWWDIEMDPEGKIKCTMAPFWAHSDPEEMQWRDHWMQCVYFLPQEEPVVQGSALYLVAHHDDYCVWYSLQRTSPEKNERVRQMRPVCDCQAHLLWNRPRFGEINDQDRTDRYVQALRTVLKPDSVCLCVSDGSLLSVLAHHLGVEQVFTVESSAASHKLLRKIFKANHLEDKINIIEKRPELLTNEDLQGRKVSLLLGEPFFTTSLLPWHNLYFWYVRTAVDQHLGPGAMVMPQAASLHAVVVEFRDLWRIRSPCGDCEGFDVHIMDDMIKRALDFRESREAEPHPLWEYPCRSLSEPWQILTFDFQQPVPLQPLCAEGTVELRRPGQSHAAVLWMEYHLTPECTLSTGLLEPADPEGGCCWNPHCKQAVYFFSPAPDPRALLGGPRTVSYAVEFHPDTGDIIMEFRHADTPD
Experimental: (§1) In vitro methylation assays were performed with GST-HsPRMT7, the indicated substrate protein or peptide, and 1.4 μM S-adenosyl-L-[methyl-^3H]methionine ([^3H]-AdoMet; PerkinElmer cat no. NET155V), prepared from diluting a stock of 7.0 μM [^3H]-AdoMet (81.9 Ci/mmol, 1 mCi/mL in 9:1 10 mM H2SO4:EtOH, v/v) in 10 mM HCl. All reactions were performed using distilled water buffered with 50 mM potassium HEPES, pH 9.5 and 1 mM DTT, reaching a final reaction volume of 30 μL. The reactions were initiated by adding [^3H]-AdoMet to a final concentration of 0.14 μM. Control reactions (enzyme-only, substrate-only) contained distilled water instead of substrate or GST-HsPRMT7, respectively. After initiation with [^3H]-AdoMet, all reactions analyzed via P81 phosphocellulose filter paper assay were incubated in a water bath at 25°C unless otherwise indicated for the specified time periods and were terminated with 0.5 μL 100% (w/v) trifluoroacetic acid (TFA). P81 assays performed at t = 0 were individually terminated immediately following initiation. Samples analyzed via SDS-PAGE were incubated at 4°C for 24 hours and were quenched by adding 5x SDS sample loading buffer (250 mM Tris-HCl, pH 6.8; 10% SDS, 30% glycerol, 10% β-mercaptoethanol, 0.2% bromophenol blue), followed by heating at 97°C for 3 min.
(§2) In vitro methylation assays with GST-HsPRMT7, selected methyl-accepting substrates, and [^3H]-AdoMet were set up as described previously and performed in triplicate. Following incubation at 25°C unless otherwise indicated for the time periods specified, all samples were quenched with 0.5 μL 100% TFA and centrifuged at 9,300 g for 10 seconds in an Eppendorf centrifuge (Model 5417C). 1 cm^2 pieces of P81 phosphocellulose filter paper (LabAlley catalog no. 05-717-2A) were spotted with 25 μL from each reaction mixture and set to dry overnight. The following day, all filter paper pieces were washed three times with 50 mM sodium bicarbonate solution, pH 9.0, and dried again in liquid scintillation vials. After 5 mL of Safety Solve fluor (RPI industries) was added to each vial, [^3H] radioactivity in each sample was quantified via liquid scintillation counter (Beckman LS6500) for four total cycles at 5 minutes per sample. All data presented are expressed as averages of the cpm from cycles 2–4.
(§3) Statistical analyses were performed using the “Analyze Data” function on GraphPad Prism v.8.0.1. To determine statistical significance, unpaired homoscedastic two-tailed Student’s t tests were performed with significance level α = 0.05 with the relevant data. To obtain apparent km and Vmax values, kinetic data were analyzed by non-linear regression using the Michaelis-Menten equation.

human PRMT7 = conditions: relative to unsubstituted peptide; cited from earlier work
Experimental: Comparatively, a previous study of ionic strength in human HEK293 cells estimates the intracellular concentration of potassium ions to be about 120–140 mM in human cells. As such, our results in Fig 7 led us to question whether this dramatic decrease in activity may be associated with a loss of either substrate-enzyme binding affinity or catalytic activity. || We confirm that human PRMT7 activity is quite sensitive to changes in the RXR target sequence in the substrate protein. […] The exquisite specificity of PRMT7 toward the basic RXR motif can be contrasted to the much broader speci ...

GST-HsPRMT7 [2] = target: T1, GST-HsPRMT7; experiment: P81 phosphocellulose filter paper methylation assay with peptide substrates (cpm, end point and time course); type: biochemical; conditions: for methylation activity compared with enzyme-only control: 0-120 min time course (Fig 6); for Difference between means ± SEM vs GST-HsPRMT7 + 10 uM Hs H2B (23-37), Fig5: 10 uM peptide, 4°C
Experimental: as §1, §2, §3

[3] = + 130 mM KCl, 5 μg GST-HsPRMT7, 0.14 μM [3H]-AdoMet, GraphPad Prism fit, read-out: Km, Michaelis-Menten best-fit value, Fig8
[4] = +130 mM KCl, apparent km, 5 μg GST-HsPRMT7, various peptide concentrations, 0.14 μM [3H]-AdoMet, pH 9.5, Michaelis-Menten fit, triplicates (Fig 8), read-out: km
[5] = no added salt, 5 μg GST-HsPRMT7, 0.14 μM [3H]-AdoMet, GraphPad Prism fit
[6] = no added salt, 5 μg GST-HsPRMT7, 0.14 μM [3H]-AdoMet, GraphPad Prism fit, read-out: Km, Michaelis-Menten best-fit value, Fig7
[7] = no added salt, apparent km of peptide substrate, 5 μg GST-HsPRMT7, various peptide concentrations, 0.14 μM [3H]-AdoMet, pH 9.5, Michaelis-Menten fit, triplicates (Fig 8), read-out: km
[8] = no salt, 5 μg GST-HsPRMT7, 0.14 μM [3H]-AdoMet, GraphPad Prism fit
[9] = no salt, 5 μg GST-HsPRMT7, 0.14 μM [3H]-AdoMet, GraphPad Prism fit, read-out: Km, Michaelis-Menten best-fit value, Fig8
[10] = no added salt, 5 μg GST-HsPRMT7, 0.14 μM [3H]-AdoMet, experiments of Fig 7, read-out: apparent km (binding affinities), Fig 7
[11] = 10 μM peptide, 5 μg GST-HsPRMT7, 25°C, in words
[12] = from Table 2, no added salt, response to reviewers, RGG peptide apparently = Mono R

| Substance | Km (GST-HsPRMT7 [1]; [3]) [µM] | Km (GST-HsPRMT7 [1]; [4]) [µM] | Vmax, Michaelis-Menten best-fit value, Fig7 (GST-HsPRMT7 [1]; [5]) | Km (GST-HsPRMT7 [1]; [6]) [µM] | Km (GST-HsPRMT7 [1]; [7]) [µM] | Vmax, Michaelis-Menten best-fit value, Fig8 (GST-HsPRMT7 [1]; [8]) | Km (GST-HsPRMT7 [1]; [9]) [µM] | change of Vmax after adding 130 mM KCl (GST-HsPRMT7 [1]) | also measured |
| --- | --- | --- | --- | --- | --- | --- | --- | --- | --- |
| Ac-KKGGRGRKGKKY-NH2 [synthetic RXR peptide with an additional lysine after the RGR motif] | 2.43 | 2.4 | 1042 | 0.5 | 0.5 | 969.7 | 0.514 | up to an approximately three-fold decrease | – |
| Ac-KKGGRKRGGKKY-NH2 [synthetic RXR peptide with lysine within the motif] | 6.88 | 6.9 | 1749 | 0.759 | 0.6 | 1716 | 0.553 | up to an approximately three-fold decrease | – |
| R33K: human histone H2B (23–37) peptide with R33K substitution, from ref 11 (KKDGKKRKRSKKESY; not fully specified (N-terminus, C-terminus); UniProt P62807 24-38, looked up, variant R33K) | – | – | – | – | – | – | – | – | PRMT7 activity with substituted human histone H2B (23–37) peptides (human PRMT7): at least a two-thirds reduction |
| Ac-KKGKRGRGGKKY-NH2 [synthetic RXR peptide with an additional lysine before the RGR motif] | 3.35 | 3.3 | 1553 | 0.895 | 0.6 | 1150 | 0.601 | up to an approximately three-fold decrease | – |
| Ac-KKGGRERGGKKY-NH2 [synthetic RXR peptide with glutamate within the motif] | – | – | 299.5 | 0.192 | 2.8 | 752.7 | 2.79 | – | Vmax, times lower than RKR (GST-HsPRMT7 [1]): 5–6 times; Km (GST-HsPRMT7 [1]; [10]): 2.8 µM |
| Ac-KKGGRGGGGKKY-NH2 [Mono R, synthetic peptide with a single arginine flanked by glycine and lysine residues] | 0.28 | – | 262.6 | 0.223 | 1.4 | 993.4 | 1.42 | – | Vmax, times lower than RKR (GST-HsPRMT7 [1]): 5–6 times; Km (GST-HsPRMT7 [1]; [10]): 1.4 µM; PRMT7 methylation activity (GST-HsPRMT7 [2]; 10 μM peptide, 5 μg GST-HsPRMT7, 0.14 μM [3H]-AdoMet, 20 h, 4°C (Fig 5), in words): barely detectable over the PRMT7-only control; methylation activity compared with enzyme-only control (GST-HsPRMT7 [2]; [11]): not significantly greater than control; Difference between means ± SEM vs GST-HsPRMT7 + 10 uM Hs H2B (23-37), Fig5 (GST-HsPRMT7 [2]; 20 h, n = 3, SEM): -4140 ± 625.1 cpm |
| KKDGKKRRKSRKESY [Xl H2B (23–37), synthetic peptide of amino acids 23–37 of Xenopus laevis histone H2B, containing 29-RRKSR-33] | – | – | – | – | – | – | – | – | GST-HsPRMT7 methylation activity (GST-HsPRMT7 [2]; 10 μM peptide, 5 μg GST-HsPRMT7, 0.14 μM [3H]-AdoMet, 40 min, 25°C (Fig 3), in words): no significant methylation activity over background; methylation activity compared with enzyme-only control (GST-HsPRMT7 [2]; [11]): low methylation activity but was significantly above control; methylation by human PRMT7 (GST-HsPRMT7 [2]; 10 and 50 μM peptide, 5 μg GST-HsPRMT7, 25°C, 0-3 h time course (Fig 4), in words): methylated by human PRMT7, albeit at low levels; Mean of GST-HsPRMT7 + peptide, Fig3 (GST-HsPRMT7 [2]; mean of n = 3, 10 μM peptide, 40 min, 25°C): 98.42 cpm; Difference between means ± SEM vs peptide only, Fig3 (GST-HsPRMT7 [2]; n = 3, 10 μM peptide, 40 min, 25°C, SEM): 28.16 ± 17.00 cpm |
| Ac-KKGGRGRGGKKY-NH2 [synthetic peptide with an RGR motif flanked by glycine and lysine residues] | 6.21 | 6.2 | 1036 | 0.682 | 0.7 | 2435 | 0.743 | up to an approximately three-fold decrease | Vmax relative to the RGG peptide (GST-HsPRMT7 [1]; [12]): about 2.5 fold; apparent km relative to the RGG peptide (GST-HsPRMT7 [1]; [12]): about half; methylation activity (maximum value) (GST-HsPRMT7 [2]; 10 μM peptide, 5 μg GST-HsPRMT7, 0.14 μM [3H]-AdoMet, 25°C, t = 120 min (Fig 6), approximate): about 800 cpm; decrease of PRMT7 activity relative to human H2B (23–37) (GST-HsPRMT7 [2]; 10 μM peptide, 5 μg GST-HsPRMT7, 0.14 μM [3H]-AdoMet, 20 h, 4°C (Fig 5)): 4 to 5 fold; Difference between means ± SEM vs GST-HsPRMT7 + 10 uM Hs H2B (23-37), Fig5 (GST-HsPRMT7 [2]; 20 h, n = 3, SEM): -2852 ± 662.1 cpm |
